# Measured values taken from US9943500B2, “Methods of treating topical microbial infections” (LUODA PHARMA PTY LIMITED, priority 2013, dated 2018).
# Tests used:
# [1] = test system: methicillin-sensitive and methicillin-resistant strains of Staphylococcus; assay: Minimum bactericidal concentration determination, Staphylococcus isolates (Example 1)
# Procedure: Following determination of the MIC using the 96 well MIC plate, a variation of the drop plate method was used to determine minimum bactericidal concentration (MBC) for each of the test compounds. These were analysed using samples taken from the MIC plate following incubation. […] Each concentration was pipetted in duplicate with duplicates being pipetted on an inner ring of drops. The plates were incubated at 37° C. overnight and assessed the following day for growth. The MBC was defined as the concentration at which 99.9% of colonies were eradicated, which was visually assessed by a lack of growth on the agar where the drop was placed.
# [2] = test system: methicillin sensitive and methicillin-resistant staphylococci; assay: Minimum inhibitory concentration assay, 42 Staphylococcus isolates (Example 1); format: cell-based
# Procedure: Forty-two isolates of Staphylococcus of varying species and strain type were collected from isolate collections. Biochemical testing including coagulase, latex agglutination testing for protein A, Vogues-Proskauer tests and resistance to polymyxin B were used to identify the species of Staphylococcus. All isolates were also screened for resistance to various antimicrobials commonly used for the treatment of skin infections. This was performed using the disk diffusion method and resistance standards as outlined by the CLSI. The following antimicrobials were used: amoxicillin-clavulanic acid (30 μg), cephalothin (30 μg), clindamycin (2 μg), enrofloxacin (5 μg), erythromycin (15 μg), gentamicin (10 μg), imipenem (10 μg), oxacillin (1 μg), penicillin G (10 units), tetracycline (30 μg), 1:19 trimethoprim-sulfamethoxazole (25 μg) and vancomycin (30 μg).
# Minimum inhibitory concentration tests were performed according to CLSI Standards (CLSI 2012). 90 μL of one of the test compound solutions, or ampicillin, was added to the end column of a 96 well plate that contained 90 μL of CAMHB in each well. The solutions were then serially diluted across the row, leaving 2 columns for positive and negative controls (FIG. 2). A bacterial suspension was prepared by adding fresh colonies obtained from an overnight culture on Sheep Blood Agar (SBA) to a 9.1 g/L saline solution. This suspension was adjusted to a concentration of between 4×10^8 and 5×10^8 CFU/mL. […] 1 mL of this suspension was added to 9 mL of saline before being added to all wells, excluding the negative control wells, in 10 μL volumes giving a final concentration of between 4×10^5 and 5×10^5 CFU/mL in each well. The tests were then incubated for 24 hours at 37° C. and then assessed both visually and using OD readings from a microplate reader at a wavelength of 600 nm. These tests were performed in duplicate but repeated if discrepancies were observed.
# The minimum inhibitory concentration (MIC) was determined to be the lowest concentration of antibiotic that prevented growth of bacteria both visually and using OD readings. Direct statistical comparisons between the test compounds and ampicillin could not be performed in light of confidential information restrictions, such as restrictions on disclosure of information relating to the compound structure, such as molecular weight. Instead, MIC values were collated and used to determine the lowest concentration of each compound that was effective against 50% and 90% of isolates, referred to as the MIC50 and MIC90 respectively. These values as well as the range of MIC values were then used for direct comparisons between test compounds and for general comparisons with ampicillin.
# [3] = test system: 51 Australian bovine mastitis isolates, primarily S. aureus, S. agalactiae and S. uberis; assay: Minimum inhibitory concentration assay, bovine mastitis isolates (Example 3); format: cell-based; conditions: all 51 isolates; read-out: MIC90
# From the text: Fifty-one dairy bovine mastitis isolates, encompassing a variety of bacterial species, were isolated from milk samples collected from dairy farms in rural South Australia by the University of Adelaide Ambulatory Clinic. Cellular morphology observed from Gram stains and catalase testing was used to differentiate Staphylococcus, Streptococcus and Corynebacterium species from Gram-negative species. Further biochemical testing including coagulase, Lancefield grouping, esculin hydrolysis and CAMP tests were used to identify the isolates to species level. Where biochemical test results were not definitive in identifying species, amplification and sequencing of the 16S ribosomal RNA gene was used to confirm the identity of the isolates.
# Minimum inhibitory concentration tests were performed in the manner outlined by the CLSI (CLSI 2012). Test compounds were dispensed into a 96-well microtitre tray containing 90 μl of CAMHB in 90 μl volumes and serial diluted to obtain a concentration gradient ranging from 128 μg/ml to 0.25 μg/ml (see FIG. 24). For Streptococcus species, CAMHB was replaced with a CAMHB supplement with 4% lysed-sheep blood (4% LSB:CAMHB). 4% LSB:CAMHB was prepared by mixing 5 ml sheep blood to 5 ml milliQ water, and repeated freezing at −20° C. and thawing, followed by centrifuged for 20 min at 7000 rpm. 7 ml of the supernatant was removed and added to 93 mL of CAMB.
# Bacterial suspensions were prepared by emulsifying fresh colonies obtained from an overnight culture on Sheep Blood Agar (SBA) in 4 mls of 9.1 g/l physiological saline to an optical density read at 600 nm (OD600 nm) between 1.00 and 1.20. Standardised bacterial suspensions were diluted 1:10 in physiological saline and dispensed into all wells, excluding the negative control wells, in 10 μL volumes giving a final concentration of between 4×10^5 and 5×10^5 CFU/mL in each well. 96-well microtitre trays were incubated for 24 hours at 37° C. in 5% CO2 and then assessed both visually and using OD readings from a microplate reader at a wavelength of 600 nm. These tests were performed in duplicate and repeated if discrepancies in MIC values were observed between replicates.
# The minimum inhibitory concentration (MIC) was determined to be the lowest concentration of antibiotic that prevented growth of bacteria both visually and using OD readings. MIC values were collated and used to determine the lowest concentration of each compound effective against 50% and 90% of isolates, known as the MIC50 and MIC90 respectively. These values as well as the range of MIC values were then used for direct comparisons between test compounds and for general comparisons with ampicillin.
# [4] = test system: ATCC 49775 reference strain; assay: Macrodilution time-kill assay (viable counts); conditions: 24 hours; all concentrations tested
# Procedure: (§1) Due to the detection limit of the OD measurements, the time-kill assays were also performed in macrodilution. In 15 mL tubes, 9 mL volumes of the test compounds in CAMHB were prepared at one, four and eight times the MIC concentration and 9 mL volumes of ampicillin were prepared in CAMHB at one and four times the MIC. 1 mL of a 4 to 5×10^6 bacterial suspension (as prepared for MIC testing) was added to each of the tubes as well as a growth control tube containing only 9 mL of CAMHB. These tubes were incubated at 37° C. in an orbital shaker rotating at 100 rpm for 24 hours. At 0, 1, 4, 8, 12 and 24 hours after addition of the bacteria, 100 μL samples were removed from each tube and serial diluted in 9.1 g/L saline solution. The dilutions were then plated in duplicate onto plate count agar and incubated for 24 hours at 37° C. After incubation, viable counts were obtained from the number of colonies visible on the agar and these were used to calculate the number of CFU/mL at each time point. For the macrodilution time-kill analysis, only the ATCC 49775 reference strain and MRSA 9 were assessed in order to further investigate the antibacterial activity against methicillin-resistant strains. These macrodilution time-kill assays were independently repeated and bactericidal activity was defined as a ≥3 log decrease in the number of CFU/mL.
# [5] = test system: MRSA 9; assay: Macrodilution time-kill assay (viable counts); conditions: 24 hours; all concentrations tested
# Procedure: as §1
# [6] = test system: red blood cells; assay: Eukaryotic cell toxicity testing, erythrocyte haemolysis; format: cell-based; conditions: 2% blood cell solution, one hour at 37° C.
# Procedure: Erythrocyte haemolysis was used in order to test the toxicity of all five compounds to eukaryotic cells. Blood samples were washed using 9.1 g/L saline solution and centrifuged at 2500 rpm for 10 minutes. This process was repeated until cellular debris and partially lysed cells were removed from solution. 2 mL of the remaining blood cells were suspended in 98 mL of 9.1 g/L saline solution to produce a 2% blood cell solution, which was dispensed in 90 μL volumes into the wells of a 96 well plate. The compound solutions as well as chloramphenicol were prepared from stock solution to a concentration of 256 μg/mL (as described above). Chloramphenicol was used as a negative control for erythrocyte lysis while a ready to use solution of amphotericin B was used as a positive control. 90 μL of the compounds and controls were added to the final well in different rows. These compounds were serially diluted across the row in order to test the different concentrations of antimicrobials. Wells containing only 2% blood solution were also used to assess variation between readings from different columns on the 96 well plates. These tests were incubated at 37° C. for one hour and then assessed for lysis both visually and using a microplate reader to measure optical density at 600 nm wavelengths. Each test was performed in duplicate and then repeated in quadruplicate in order to ensure accuracy.
structure (smiles),measurement,setting,value
"CC[C@@H](C(=O)[C@@H](C)[C@@H](O)[C@H](C)CCc1ccc(C)c(O)c1C(=O)O)[C@H]1O[C@](CC)([C@H]2CC[C@](O)(CC)[C@H](C)O2)C[C@@H]1C [LP 1369, Lasalocid]",bactericidal activity (MBC testing),[1]; lower concentrations,some bactericidal activity in lower concentrations
same,MBC50 rank among test compounds,[1]; methicillin-sensitive isolates,lowest MBC50 values
same,strain type for which bactericidal activity was more consistent,[1]; methicillin-sensitive versus methicillin-resistant strains,more consistently for methicillin-sensitive strains
same,MIC50 and MIC90 values compared with ampicillin,[2],considerably lower than ampicillin
same,MIC90,[3],4 µg/mL
same,decrease in the number of viable bacteria,[4],< 3 log10
same,decrease in the number of viable bacteria,[5],< 3 log10
same,concentration at which lysis was most visually evident,[6],64000 ng/mL
same,concentration range in which some lysis of cells was observed,[6],32000 to 128000 ng/mL
